PubChem BioAssay AID220 (DTP/NCI, 2004)
Values joined by “and” are separate entries in the source; they are usually repeats but may differ in a detail not shown here. Equal values may be shown once. Inconclusive results are not listed.

System: CD8F1 mice, subcutaneous mammary adenocarcinoma, T/C%
Experiment: NCI In Vivo Anticancer Drug Screen. Data for tumor model Mammary Adenocarcinoma CD8F1 (subcutaneous) in CD8F1
Details: higher = larger tumour
Summary of the method: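 Antitumor activity is assessed in transplantable-tumor mice by comparing the treated group with a vehicle-treated control group. Survival or tumor size serves as the measure, reported as T divided by C.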

[1] = endpoint: median tumor weight (est.), dose: 50.0 mg/kg/injection, schedule: Q07DX005 (ip), vehicle: saline with Tween-80
[2] = endpoint: median tumor weight (est.), dose: 100.0 mg/kg/injection, schedule: Q07DX005 (ip), vehicle: saline with Tween-80
[3] = endpoint: median tumor weight (est.), dose: 800.0 mg/kg/injection, schedule: Q07DX005 (ip), vehicle: saline with Tween-80
[4] = endpoint: median tumor weight change, dose: 62.5 mg/kg/injection, schedule: Q01DX001 (ip), vehicle: saline with Tween-80
[5] = endpoint: median tumor weight change, dose: 125.0 mg/kg/injection, schedule: Q01DX001 (ip), vehicle: saline with Tween-80
[6] = endpoint: median tumor weight change, dose: 250.0 mg/kg/injection, schedule: Q01DX001 (ip), vehicle: saline with Tween-80

## NCCc1ccc(O)c(O)c1
endpoint: mean tumor weight, dose: 300.0 mg/kg/injection, schedule: Q07DX005 (ip), vehicle: saline
  T/C: 39 % of control
endpoint: mean tumor weight, dose: 600.0 mg/kg/injection, schedule: Q07DX005 (ip), vehicle: saline
  T/C: 87 % of control
endpoint: median tumor weight (est.), dose: 25.0 mg/kg/injection, schedule: Q07DX005 (ip), vehicle: saline
  T/C: 62 % of control
endpoint: median tumor weight (est.), dose: 200.0 mg/kg/injection, schedule: Q07DX005 (ip), vehicle: saline
  T/C: 83 % of control
endpoint: median tumor weight (est.), dose: 300.0 mg/kg/injection, schedule: Q07DX005 (ip), vehicle: saline
  T/C: 74 % of control

## CC(=O)NC(Cc1ccc(F)cc1)C(=O)O (configuration not stated)
[1]
  T/C: 117 % of control
[2]
  T/C: 80 % of control
endpoint: median tumor weight (est.), dose: 200.0 mg/kg/injection, schedule: Q07DX005 (ip), vehicle: saline with Tween-80
  T/C: 68 % of control
[3]
  T/C: 153 % of control

## O=C(Nc1ccc(C2=NCCN2)cc1)c1ccc(C(=O)Nc2ccc(C3=NCCN3)cc2)c(Cl)c1
endpoint: mean tumor weight, dose: 6.25 mg/kg/injection, schedule: Q07DX004 (ip), vehicle: saline with Tween-80
  T/C: 70 % of control
endpoint: mean tumor weight, dose: 12.5 mg/kg/injection, schedule: Q07DX004 (ip), vehicle: saline with Tween-80
  T/C: 77 % of control
endpoint: mean tumor weight, dose: 25.0 mg/kg/injection, schedule: Q07DX004 (ip), vehicle: saline with Tween-80
  T/C: 71 % of control

## Nc1nc(=S)c2ncn(C3CC(O)C(CO)O3)c2[nH]1 (configuration not stated)
endpoint: median tumor weight (est.), dose: 10.0 mg/kg/injection, schedule: Q07DX005 (ip), vehicle: saline with Tween-80
  T/C: 17 % of control and 37 % of control
endpoint: median tumor weight (est.), dose: 12.5 mg/kg/injection, schedule: Q07DX005 (ip), vehicle: suspension in saline
  T/C: 81 % of control
endpoint: median tumor weight (est.), dose: 20.0 mg/kg/injection, schedule: Q07DX005 (ip), vehicle: saline with Tween-80
  T/C: 9 % of control and 21 % of control
endpoint: median tumor weight (est.), dose: 25.0 mg/kg/injection, schedule: Q07DX005 (ip), vehicle: suspension in saline
  T/C: 101 % of control
endpoint: median tumor weight (est.), dose: 40.0 mg/kg/injection, schedule: Q07DX005 (ip), vehicle: saline with Tween-80
  T/C: 6 % of control and 7 % of control
endpoint: median tumor weight (est.), dose: 50.0 mg/kg/injection, schedule: Q07DX005 (ip), vehicle: suspension in saline
  T/C: 72 % of control
endpoint: median tumor weight (est.), dose: 80.0 mg/kg/injection, schedule: Q07DX005 (ip), vehicle: saline with Tween-80
  T/C: 2 % of control and 5 % of control
endpoint: median tumor weight (est.), dose: 200.0 mg/kg/injection, schedule: Q07DX005 (ip), vehicle: suspension in saline
  T/C: 62 % of control

## NS(=O)(=O)OCCCCCCCOS(N)(=O)=O
endpoint: median tumor weight change, dose: 62.0 mg/kg/injection, schedule: Q01DX001 (ip), vehicle: saline with Tween-80
  T/C: 66 % of control
[4]
  T/C: 22 % of control
[5]
  T/C: 33 % of control and 34 % of control
[6]
  T/C: -27 % of control and -36 % of control

## O=c1[nH]c(=O)n(C2CC(O)C(CO)O2)cc1I (configuration not stated)
endpoint: median tumor weight (est.), dose: 182.87 mg/kg/injection, schedule: Q07DX005 (ip), vehicle: saline with Tween-80
  T/C: 99 % of control
endpoint: median tumor weight (est.), dose: 365.75 mg/kg/injection, schedule: Q07DX005 (ip), vehicle: saline with Tween-80
  T/C: 76 % of control
endpoint: median tumor weight (est.), dose: 731.5 mg/kg/injection, schedule: Q07DX005 (ip), vehicle: saline with Tween-80
  T/C: 91 % of control
[3]
  T/C: 45 % of control and 50 % of control
endpoint: median tumor weight (est.), dose: 1463.0 mg/kg/injection, schedule: Q07DX005 (ip), vehicle: saline with Tween-80
  T/C: 50 % of control
endpoint: median tumor weight (est.), dose: 1600.0 mg/kg/injection, schedule: Q07DX005 (ip), vehicle: saline with Tween-80
  T/C: 46 % of control and 53 % of control
endpoint: median tumor weight (est.), dose: 3200.0 mg/kg/injection, schedule: Q07DX005 (ip), vehicle: saline with Tween-80
  T/C: 7 % of control and 10 % of control

## S=C=NCCc1ccccc1
endpoint: median tumor weight (est.), dose: 25.0 mg/kg/injection, schedule: Q07DX005 (ip), vehicle: saline with Tween-80
  T/C: 120 % of control
[1]
  T/C: 111 % of control
[2]
  T/C: 53 % of control

## [O-][n+]1c(CN2CCCCC2)nc2cccc3c2c1-c1ccccc1-3
[5]
  T/C: 78 % of control
[6]
  T/C: 104 % of control
endpoint: median tumor weight change, dose: 500.0 mg/kg/injection, schedule: Q01DX001 (ip), vehicle: saline with Tween-80
  T/C: 84 % of control

## C=C(C)C(=NC(C)(C)C)Nc1ccccc1
[4]
  T/C: 92 % of control
[5]
  T/C: 60 % of control
[6]
  T/C: 96 % of control

## CC(O)CCC(=O)c1ccoc1 (configuration not stated)
endpoint: median tumor weight change, dose: 3.32 mg/kg/injection, schedule: Q03HX003 (ip), vehicle: saline
  T/C: 89 % of control
endpoint: median tumor weight change, dose: 6.65 mg/kg/injection, schedule: Q03HX003 (ip), vehicle: saline
  T/C: 101 % of control
